Source: patent US20210128735A1, “BIOCOMPATIBLE COPOLYMER CONTAINING MULTIPLE ACTIVE AGENT MOLECULES” (priority 2018, published 2021)
Read-outs that look alike come from different tables or passages of the source.

System: HepG2 cells
Assay: Exploratory toxicity: eight cell health parameters (CHP) by automated fluorescent cellular imaging (ArrayScan)
Assay type: cell-based
Settings: for MTD (row Cell count): concentration at which <20% cell loss was observed; for AC50: Homo sapiens
Experimental: The polymeric carriers of this disclosure are not biodegradable. […] An exploratory toxicity study of a polymeric carrier of the present disclosure (without payload) was performed. Briefly, HepG2 cells were plated on 96-well black walled, clear bottomed polystyrene plates at 100 μL per well. Test compound was a H2N-G3-Cellophil copolymer (12 kDa) containing DMA and AK (90/10 mol %) that was prepared by the procedure described in example 13, step 7. The HepG2 cells were dosed with test compound at concentrations from 0.04 to 100 μM. At the end of 72-h incubation at 37° C., appropriate dies or antibodies were added to the cultures. The plates were then scanned using an automated fluorescent cellular imager (ArrayScan®, Thermo Scientific Cellomics).
The following eight cell health parameters (CHP) were evaluated:
Cell count: A decreasing number of cells per well indicates toxicity due to necrosis, apoptosis or a reduction in cellular proliferation. Nuclear size: An increase in nuclear area can indicate necrosis or G2 cell cycle arrest, and a decrease can indicate apoptosis. DNA structure: An increase in DNA structure can indicate chromosomal instability and DNA fragmentation. Mitochondrial mass: A decrease in mitochondrial mass indicates loss of total mitochondria and an increase implies mitochondrial swelling or an adaptive response to cellular energy demands. Mitochondrial membrane potential (Δψm): A decrease indicates a loss of mitochondrial integrity, typically resulting in apoptotic signaling; an increase in mitochondrial membrane potential indicates an adaptive response to cellular energy demands. Oxidative stress: An increase in reactive oxygen species (ROS) is an early cytotoxic response. Glutathione content: A decrease in glutathione (GSH) content can result from production of ROS or from direct binding to tested compound. An increase in GSH content represents an adaptive cellular response to oxidative stress. Cellular ATP: After cell lysis, ATP is released from the cell. Cells which are not metabolically active will not release any ATP. Therefore, a decrease in metabolically active cells will result in a decrease in the level of ATP detected.

[1] = HepG2, 72-h incubation, NR = no response

## N#CC(C#N)=NNc1cccc(Cl)c1 [control 1, carbonyl cyanide 3-chlorophenylhydrazone]
HepG2, 72-h incubation at 37° C., 0.04 to 100 μM, MEC = lowest dose at which an effect is detected, NR = no response
  MEC, Cell count: 1.73 µM
[1]
  MEC, Cellular ATP: 3.13 µM
  MEC, Nuclear size: 3.76 µM
  MEC, Oxidative stress: 0.539 µM
  MTD (row Cell count): 2 µM
HepG2, 72-h incubation, NR = no response, NS = not statistical significant
  MEC, DNA structure: 0.63 µM
HepG2, 72-h incubation, NR = no response, NS = not statistical significant, read-out: AC50, DNA structure
  AC50: 46.7 µM
HepG2, 72-h incubation, NR = no response, read-out: AC50, Cellular ATP
  AC50: 4.15 µM
HepG2, 72-h incubation, NR = no response, read-out: AC50, Glutathione content
  AC50: > 100 µM
HepG2, 72-h incubation, NR = no response, read-out: AC50, Mitochondrial mass
  AC50: > 100 µM
HepG2, 72-h incubation, NR = no response, read-out: AC50, Mitochondrial membrane potential
  AC50: > 100 µM
HepG2, 72-h incubation, NR = no response, read-out: AC50, Nuclear size
  AC50: 8.09 µM
HepG2, 72-h incubation, NR = no response, read-out: AC50, Oxidative stress
  AC50: 22.4 µM
HepG2, 72-h incubation, concentration at which 50% of the maximum effect is observed, NR = no response, read-out: AC50, Cell count
  AC50: 2.54 µM

## CCCCS(=N)(=O)CCC(N)C(=O)O [control 2, L-buthionine-sulfoximine]
  MEC, Cellular ATP: 14.4 µM
  MEC, Glutathione content: 1.7 µM
[1]
  MTD (row Cell count): 40 µM
